Experiments:
[1] = test system: VERO CCL-81 cells
[2] = test system: ZIKV (PLCal_ZV strain); experiment: CPE-based antiviral assay, ZIKV, neutral red readout (Example 14); format: cell-based, Zikavirus; settings: 6 days post infection
Protocol: (§1) A CPE-based antiviral assay was performed by infecting target cells in the presence or absence of test compositions, at a range of concentrations. […] cytopathic effects and cell death. […] For CPE-based assays, cell viability was determined with a neutral red readout. Viable cells incorporate neutral red in their lysosomes. Uptake of neutral red relies on the ability of live cells to maintain a lower pH inside their lysosomes than in the cytoplasm, and this active process requires ATP. Once inside the lysosome, the neutral red dye becomes charged and is retained intracellularly. […] The amount of neutral red in solution was quantified by reading the absorbance (optical density) of each well at 490 nm […]
(§2) Cytotoxic effects were evaluated in uninfected cells by comparing viability in the presence of inhibitors to the viability of mock-treated cells. Cytotoxicity was determined by an XTT viability assay, which was conducted at the same timepoint as the readout for the corresponding infection assay.
(§3) Test compositions were dissolved in 100% methanol. […] When possible, the EC50 and CC50 of the composition was determined for each assay using GraphPad Prism software. […]
Protection of ZIKV-induced cytopathic effect (CPE) with Neutral Red readout: For the ZIKV antiviral assay, the PLCal_ZV strain was used. […]

[3] = test system: Ebolavirus (EBOV/Kik); format: cell-based; settings: based on the oleandrin content; final concentration of compositions 20 microg/mL
[4] = test system: DENV2 (08-10381 Montserrat strain); experiment: CPE-based antiviral assay, DENV2, neutral red readout (Example 14); format: cell-based, Dengue virus; settings: 7 days post infection
Protocol: as §1, §2, §3
Protection of DENV2-induced cytopathic effect (CPE) with Neutral Red readout: For the DENV2 antiviral assay, the 08-10381 Montserrat strain was used. […]

[5] = test system: SARS-CoV-2; experiment: SARS-CoV-2 genome equivalents in supernatant by qRT-PCR (Example 39); format: cell-based; settings: 24 hours-post infection, four highest doses
Source text: The Vero 81 cells described above were subjected to genome analysis determine whether the inhibition of SARS-CoV-2 was at the level of total or infectious particle production. RNA was extracted from the cell culture supernatants of the prophylactic study, and genomic equivalents were quantified via qRT-PCR (Example 39). The prophylactic effect of oleandrin, initially observed via infectious assay, was confirmed at the level of genome equivalents. […]
To quantify genome copies for the samples, 200 μl of sample was extracted with a 5:1 volume ratio of TRIzol LS (Ambion, Carlsbad, Calif.), utilizing standard manufacturers protocols and resuspending in 11 μl water. Extracted RNA were tested for SARS-CoV-2 by qRT-PCR following a previously published assay (26). Briefly, the N gene was amplified using the following primers and probe: forward primer [5′-[…]-3′] (SEQ ID NO. 1); reverse primer [5′-[…]-3′] (SEQ ID NO. 2); and probe [5′-FAM-[…]-TAMRA-3′; (SEQ ID NO. 3)]. […]

SMILES: CO[C@H]1C[C@H](O[C@H]2CC[C@@]3(C)[C@H](CC[C@@H]4[C@@H]3CC[C@]3(C)[C@@H](C5=CC(=O)OC5)[C@@H](OC(C)=O)C[C@]43O)C2)O[C@@H](C)[C@@H]1O [oleandrin]
- cellular toxicity [1]: no cellular toxicity was observed
- efficacy against Zika virus [2]: demonstrates efficacy
- efficacy against Ebolavirus [3]: efficacious
- efficacy against Dengue virus [4]: demonstrates efficacy
- SARS-CoV-2 genomes in the supernatant [5]: significantly decreased

Source: patent US11806359B2 (priority 2020, dated 2023)
